Key:
Settings in all cases: incubation time: 72 h
[1] = system: MDA-MB-453; assay: normalised response (% of control), CellTox Green; higher = less cell death (100 = DMSO, 0 = benzethonium chloride kill control)
How it was run: (§1)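 Plates were normalised with 0.1 % DMSO as 100 and a positive kill control as 0. Breast cancer cell lines in 20 µl suspension had been seeded into 384-well plates with compound at 5 concentrations in 10-fold steps over a compound-specific 10,000-fold range, incubated 72 h, and read for CellTox Green fluorescence (485/520 nm) followed by CellTiter-Glo luminescence. Each value is the normalised signal at a single concentration.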

[2] = system: CAL-85-1; assay: as above
How it was run: as §1

[3] = system: DU-4475; assay: as above
How it was run: as §1

[4] = system: CAL-51; assay: as above
How it was run: as §1

[5] = system: MDA-MB-231; assay: as above
How it was run: as §1

[6] = system: CAL-120; assay: as above
How it was run: as §1

[7] = system: MFM-223; assay: as above
How it was run: as §1

[8] = system: MDA-MB-468; assay: as above
How it was run: as §1

[9] = system: BT-474; assay: as above
How it was run: as §1

[10] = system: HCC1937; assay: as above
How it was run: as §1

[11] = system: HDQ-P1; assay: as above
How it was run: as §1

[12] = system: HCC1143; assay: as above
How it was run: as §1

[13] = system: MCF-10A; assay: as above
How it was run: as §1

[14] = system: HCC1599; assay: as above
How it was run: as §1

[15] = system: Hs578T; assay: as above
How it was run: as §1

[16] = system: CAL-148; assay: as above
How it was run: as §1

[17] = system: BT-549; assay: as above
How it was run: as §1

[18] = system: MDA-MB-436; assay: as above
How it was run: as §1

[19] = system: MDA-MB-453; assay: normalised response (% of control), CellTiter-Glo; higher = more viable cells (100 = DMSO, 0 = benzethonium chloride kill control)
Procedure: (§2)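 DSRT, 72 h incubation, CellTox Green / CellTiter-Glo readout. Signal is normalised to DMSO and benzethonium chloride controls. Value is the normalised response at the highest dose.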

[20] = system: CAL-85-1; assay: as above
Procedure: as §2

[21] = system: DU-4475; assay: as above
Procedure: as §2

[22] = system: CAL-51; assay: as above
Procedure: as §2

[23] = system: MDA-MB-231; assay: as above
Procedure: as §2

[24] = system: CAL-120; assay: as above
Procedure: as §2

[25] = system: MFM-223; assay: as above
Procedure: as §2

[26] = system: MDA-MB-468; assay: as above
Procedure: as §2

[27] = system: BT-474; assay: as above
Procedure: as §2

[28] = system: HCC1937; assay: as above
Procedure: as §2

[29] = system: HDQ-P1; assay: as above
Procedure: as §2

[30] = system: HCC1143; assay: as above
Procedure: as §2

[31] = system: MCF-10A; assay: as above
Procedure: as §2

[32] = system: HCC1599; assay: as above
Procedure: as §2

[33] = system: Hs578T; assay: as above
Procedure: as §2

[34] = system: CAL-148; assay: as above
Procedure: as §2

[35] = system: SK-BR-3; assay: as above
Procedure: as §2

[36] = system: BT-549; assay: as above
Procedure: as §2

[37] = system: MDA-MB-436; assay: as above
Procedure: as §2

Row | SMILES | normalised response [1] [%] | normalised response [2] [%] | normalised response [3] [%] | normalised response [4] [%] | normalised response [5] [%] | normalised response [6] [%] | normalised response [7] [%] | normalised response [8] [%] | normalised response [9] [%] | normalised response [10] [%] | normalised response [11] [%] | normalised response [12] [%] | normalised response [13] [%] | normalised response [14] [%] | normalised response [15] [%] | normalised response [16] [%] | normalised response [17] [%] | normalised response [18] [%] | normalised response [19] [%] | normalised response [20] [%] | normalised response [21] [%] | normalised response [22] [%] | normalised response [23] [%] | normalised response [24] [%] | normalised response [25] [%] | normalised response [26] [%] | normalised response [27] [%] | normalised response [28] [%] | normalised response [29] [%] | normalised response [30] [%] | normalised response [31] [%] | normalised response [32] [%] | normalised response [33] [%] | normalised response [34] [%] | normalised response [35] [%] | normalised response [36] [%] | normalised response [37] [%]
1 | CO[C@H]1C[C@@H]2CC[C@@H](C)[C@@](O)(O2)C(=O)C(=O)N2CCCC[C@H]2C(=O)O[C@H]([C@H](C)C[C@@H]2CC[C@@H](OCCO)[C@H](OC)C2)CC(=O)[C@H](C)/C=C(\C)[C@@H](O)[C@@H](OC)C(=O)[C@H](C)C[C@H](C)/C=C/C=C/C=C/1C [Everolimus] (100 nM) | 104 | 122 | 95.4 | 98.1 | 111 | 99.3 | 53.1 | 158 | 100 | 88.6 | 109 | 66.4 | 92.9 | 95.8 | 79.6 | 92.5 | 100 | 99.7 | 51.5 | 63.1 | 63.7 | 64.3 | 87.9 | 63.5 | 61.6 | 57.5 | 77.6 | 66.1 | 72.9 | 61.5 | 80.9 | 104 | 65.1 | 53.4 | 49.5 | 61 | 75.5
2 | CCCCCCCCc1ccc(CCC(N)(CO)CO)cc1 [Fingolimod] (10000 nM) | 33.6 | -110 | 100 | 47.5 | -62.5 | 69.4 | 62.1 | -186 | 0.12 | 5.79 | 53.7 | 97 | -90 | 91.4 | 37.8 | 67.4 | 57 | 44.4 | 0.66 | -0.17 | 89.2 | 47.6 | 1.4 | 78.1 | 39.2 | -0.02 | 1.96 | 5.87 | 27.9 | 75.8 | -0.32 | 61.6 | 62.2 | 44.7 | -0.19 | 11.2 | 12.8
3 | COc1ccccc1S(=O)(=O)Nc1ccc2c(c1)CN(C)C(=O)N2 [PFI-1] (10000 nM) | 94.5 | 65.1 | 90.2 | 83.5 | 117 | 104 | 103 | 193 | 105 | 120 | 103 | 104 | 125 | 104 | 135 | 91.6 | 108 | 101 | 42.8 | 46.2 | 71.8 | 56.9 | 66.8 | 75.8 | 59.5 | 65.4 | 64.6 | 74.1 | 65.2 | 67.1 | 54.1 | 56.6 | 41.6 | 82 | 64.3 | 44.5 | 80
4 | C/C(=C\c1csc(C)n1)[C@@H]1C[C@@H]2O[C@]2(C)CCC[C@H](C)[C@H](O)[C@@H](C)C(=O)C(C)(C)[C@@H](O)CC(=O)O1 [Patupilone] (1000 nM) | 96.4 | -11.4 | 100 | 41.2 | -10.5 | 87.5 | 55.5 | 97.4 | 52.6 | 103 | 93.3 | 53.7 | 20.1 | 92.5 | -68.9 | 52.6 | 74.4 | 78.4 | 53.2 | 20.7 | 49.2 | 25.4 | 29.8 | 58.4 | 47.4 | 36 | 36.8 | 74 | 62.4 | 31.3 | 41.5 | 25.3 | 12.2 | 54.1 | 11.7 | 18.5 | 31.5
5 | NS(=O)(=O)OC[C@@H]1C[C@@H](n2ccc3c(N[C@H]4CCc5ccccc54)ncnc32)C[C@@H]1O [Pevonedistat] (10000 nM) | 95.5 | 53.7 | 73.8 | -20.5 | 100 | 97 | 99 | 56.6 | 104 | 107 | 90.5 | 87.8 | 95.7 | 72.6 | 91 | 90.7 | 78.3 | 28.2 | 66.2 | 39.7 | 0.22 | 10 | 46 | 47.8 | 49.9 | 32.9 | 45.5 | 60.3 | 72.6 | 33.9 | 91.2 | 18.2 | 60.1 | 123 | 30.4 | 27 | 21
6 | CN(C)C[C@@H]1CCn2cc(c3ccccc32)C2=C(C(=O)NC2=O)c2cn(c3ccccc23)CCO1 [Ruboxistaurin] (10000 nM) | 9.28 | -82.9 | 92.1 | -50.2 | -85 | 76.3 | 73.5 | -88 | -10.6 | 33 | 26.2 | 103 | 54.2 | 91.6 | 62.9 | 10.5 | 30.4 | -6.73 | 0.01 | 1.43 | 62.1 | 7.88 | 0.34 | 55.2 | 34.9 | 1.42 | 4.02 | 38.5 | 35 | 48.1 | 42.6 | 78.9 | 70.6 | 0.12 | -0.11 | 10.1 | 3.33
7 | Cn1cncc1[C@@](N)(c1ccc(Cl)cc1)c1ccc2c(c1)c(-c1cccc(Cl)c1)cc(=O)n2C [Tipifarnib] (10000 nM) | 92.4 | 75.2 | 85.6 | 84 | 57.5 | 81 | 75.5 | 88.8 | 75.5 | 72.2 | 69.9 | 98.7 | 92.6 | 98 | 101 | 89.5 | 90.4 | 81.1 | 63.7 | 61.5 | 46.9 | 59.1 | 73.8 | 63.4 | 39.6 | 31.8 | 53.9 | 53.1 | 60.2 | 49.6 | 74.3 | 40.6 | 49.6 | 54.7 | 33.5 | 40.3 | 34.7
8 | O=C1NC(=O)[C@@H](c2cn3c4c(cccc24)CCC3)[C@@H]1c1c[nH]c2ccccc12 [Tivantinib] (1000 nM) | 96.2 | 20.5 | 93.6 | 26.8 | 11.1 | 74.4 | 76.4 | 60.4 | 76 | 84.5 | 80.2 | 104 | 57.7 | 77.5 | 52.5 | 71.5 | 85.3 | 68.1 | 54.3 | 30.6 | 71.6 | 38.7 | 56.2 | 49.4 | 60 | 29.7 | 60.2 | 69.4 | 69.9 | 53.5 | 58.1 | 47.9 | 24.6 | 41.5 | 16.4 | 35.4 | 43.6

Source: the supplement of paper PMC4862054
